Data from patent publication US20250049798A1, “WEE1 PROTEIN KINASE DEGRADATION AGENT AND USE THEREOF” (HANGZHOU GLUBIO PHARMACEUTICAL CO. LTD., priority 2021, published 2025).

Legend:
NCI-H1048 cells = experiment: NCI-H1048 cell proliferation assay (CTG assay); assay type: cell-based; settings: Homo sapiens, 120 hours, read-out: CTG cellular assay_H1048: IC50
Description: NCI-H1048 Cell Proliferation Assay (CTG Assay) The following is an example of an assay that can be used to determine the anti-proliferative activity of Wee1 PROTACs in a small cell lung cancer cell line, NCI-H1048 (ATCC Cat #CRL-5853). This cell line was cultured in RPMI-1640 medium supplemented with 10% FBS. About 1,200 NCI-H1048 cells in 50 μL of culture medium were seeded into a 384-well plate (Cat #3764, Corning), pre-spotted with compounds using the Echo 650 liquid handler (Beckman). The dose-response-curve (DRC) typically has 10-points with a highest concentration at 10 μM, and half-log diluted to as low as 0.316 nM, plus a DMSO control. Assay plates were incubated at 37° C. with 5% CO2 for 120 hours. After that, 20 μL of the CellTiter-Glo (CTG) Luminescent Cell Viability Assay Reagent (Cat #G7573, Promega) was added to each well and incubated at room temperature for 30 minutes. Luminescence was then measured with Pherastar microplate reader (BMG Labtech). All percentage of cell growth inhibition curves were processed using Collaborative Drug Discovery Vault.
Cell viability reads in compound-treated wells were normalized to that of DMSO control and expressed as Percent of Control (PoC, y). A four Parameter Logistic Model was used to determine the compound's EC50 and DC50, using the following equation: […]

HiBiT tagged Wee1 = HiBiT tagged Wee1 (Homo sapiens, UniProt P30291); experiment: Wee1 protein degradation assay (HiBiT assay); assay type: cell-based; settings: engineered HT-1080 cells, 20 hours; for Dmax: maximum percentage of Wee1 degradation, read-out: HiBiT Wee1: Dmax
HiBiT tagged Wee1, sequence (P30291 whole entry): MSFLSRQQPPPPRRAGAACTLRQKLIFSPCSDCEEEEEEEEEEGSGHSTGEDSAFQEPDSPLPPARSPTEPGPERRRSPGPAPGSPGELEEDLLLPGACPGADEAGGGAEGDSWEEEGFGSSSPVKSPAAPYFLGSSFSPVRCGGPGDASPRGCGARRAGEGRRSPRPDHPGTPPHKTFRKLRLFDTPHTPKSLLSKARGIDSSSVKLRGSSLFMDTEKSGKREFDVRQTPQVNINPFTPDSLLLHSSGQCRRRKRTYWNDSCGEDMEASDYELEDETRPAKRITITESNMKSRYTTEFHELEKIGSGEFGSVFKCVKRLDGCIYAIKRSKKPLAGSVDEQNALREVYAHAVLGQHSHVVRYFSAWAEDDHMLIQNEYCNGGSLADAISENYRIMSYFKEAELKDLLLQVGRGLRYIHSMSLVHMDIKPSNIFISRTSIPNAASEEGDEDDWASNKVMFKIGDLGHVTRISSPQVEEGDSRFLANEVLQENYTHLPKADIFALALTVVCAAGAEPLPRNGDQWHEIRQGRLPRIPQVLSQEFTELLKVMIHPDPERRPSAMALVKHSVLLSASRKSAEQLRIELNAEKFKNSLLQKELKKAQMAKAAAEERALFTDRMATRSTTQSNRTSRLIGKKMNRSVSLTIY

IC50 (NCI-H1048 cells) [nM] | DC50 (HiBiT tagged Wee1) [nM] | Dmax (HiBiT tagged Wee1) [%] | SMILES
≤ 25 | < 100 | > 75 | C=CCn1c(=O)c2cnc(Nc3ccc(N4CCC(CN5CCN(c6ccc(NC7CCC(=O)NC7=O)cc6F)CC5)CC4)cc3)nc2n1-c1cccc(C(C)(C)O)n1 (single isomer, unassigned) [Compound 100-A]
≤ 25 | < 100 | > 75 | C[C@]1(O)CC/C=C\Cn2c(=O)c3cnc(Nc4ccc(N5CCN(CC6CCN(c7ccc(NC8CCC(=O)NC8=O)cc7F)CC6)CC5)cc4)nc3n2-c2cccc1n2 (single isomer, unassigned) [Compound 141]
25 to 100 | < 100 | 50 to 75 | C=CCn1c(=O)c2cnc(Nc3ccc(C4CCN(C[C@@H]5CCN(c6ccc7c(c6)C(=O)N(C6CCC(=O)NC6=O)C7=O)C5)CC4)cc3)nc2n1-c1cccc(C(C)(C)O)n1 (stereo partly drawn) [Compound 37]
≤ 25 | < 100 | 50 to 75 | C=CCn1c(=O)c2cnc(Nc3ccc(C4CCN(CC5CCN(c6ccc7c(C8CCC(=O)NC8=O)nn(C)c7c6)CC5)CC4)cc3)nc2n1-c1cccc(C(C)(C)O)n1 (stereo not drawn) [Compound 111]
≤ 25 | < 100 | > 75 | C=CCn1c(=O)c2cnc(Nc3ccc(N4CCC(CN5CCN(c6ccc7c(C8CCC(=O)NC8=O)nn(C)c7c6)CC5)CC4)cc3)nc2n1-c1cccc(C(C)(C)O)n1 (stereo not drawn) [Compound 106]
25 to 100 | < 100 | 50 to 75 | C=CCn1c(=O)c2cnc(Nc3ccc(N4CCN(CC5CN(c6ccc7c(c6)C(=O)N(C6CCC(=O)NC6=O)C7=O)C5)CC4)cc3)nc2n1-c1cccc(C(C)(C)O)n1 (stereo not drawn) [Compound 10]
≤ 25 | < 100 | > 75 | C=CCn1c(=O)c2cnc(Nc3ccc(N4CCN(CC5CCN(c6ccc7c(N8CCC(=O)NC8=O)nn(C)c7c6)CC5)CC4)cc3)nc2n1-c1ccc2c(n1)[C@](C)(O)CC2 [Compound 115]
≤ 25 | < 100 | > 75 | C=CCn1c(=O)c2cnc(Nc3ccc(N4CCC(CN5CCN(c6ccc(NC7CCC(=O)NC7=O)cc6F)CC5)CC4)cc3)nc2n1-c1ccc2c(n1)[C@@](O)(CC)CC2 (stereo partly drawn) [Compound 119]
≤ 25 | < 100 | > 75 | C=CCn1c(=O)c2cnc(Nc3ccc(N4CCC(CN5CCN(c6cccc7c(C8CCC(=O)NC8=O)nn(C)c67)CC5)CC4)cc3)nc2n1-c1cccc(C(C)(C)O)n1 (stereo not drawn) [Compound 144]
≤ 25 | < 100 | > 75 | C=CCn1c(=O)c2cnc(Nc3ccc(N4CCN(CC5CCN(c6ncc(NC7CCC(=O)NC7=O)cc6F)CC5)[C@@H](C)C4)cc3)nc2n1-c1ccc2c(n1)[C@@](O)(CC)CC2 (stereo partly drawn) [Compound 192]
≤ 25 | < 100 | > 75 | C=CCn1c(=O)c2cnc(Nc3ccc(N4CCN(CC5CCN(c6ccc(NC7CCC(=O)NC7=O)cc6F)CC5)[C@H](C)C4)cc3)nc2n1-c1ccc2c(n1)[C@@](O)(CC)CC2 (stereo partly drawn) [Compound 163]
≤ 25 | < 100 | > 75 | C=CCn1c(=O)c2cnc(Nc3ccc(N4CCN(CC5CCN(c6ccc(NC7CCC(=O)NC7=O)cn6)CC5)CC4)cc3)nc2n1-c1cccc(C(C)(C)O)n1 (stereo not drawn) [Compound 87]
≤ 25 | < 100 | > 75 | C=CCn1c(=O)c2cnc(Nc3ccc(N4CCC(N5CCC(c6ccc(NC7CCC(=O)NC7=O)cc6F)CC5)CC4)cc3)nc2n1-c1cccc(C(C)(C)O)n1 (stereo not drawn) [Compound 82]
≤ 25 | < 100 | > 75 | C=CCn1c(=O)c2cnc(Nc3ccc(N4CC5(CCN(C6CN(c7ccc(NC8CCC(=O)NC8=O)cc7F)C6)CC5)C4)cc3)nc2n1-c1ccc2c(n1)[C@@](O)(CC)CC2 (stereo partly drawn) [Compound 179]
≤ 25 | < 100 | > 75 | C=CCn1c(=O)c2cnc(Nc3ccc(N4CC5(CC(N6CCN(c7ccc(NC8CCC(=O)NC8=O)cc7F)CC6)C5)C4)cc3)nc2n1-c1ccc2c(n1)[C@@](O)(CC)CC2 (stereo partly drawn) [Compound 173]
≤ 25 | < 100 | > 75 | C=CCn1c(=O)c2cnc(Nc3ccc(N4CCN(CC5CCN(c6ccc(NC7CCC(=O)NC7=O)cc6F)CC5)[C@@H](C)C4)cc3)nc2n1-c1ccc2c(n1)[C@@](O)(CC)CC2 (stereo partly drawn) [Compound 162]
≤ 25 | < 100 |  | C=CCn1c(=O)c2cnc(Nc3ccc(N4CCN(C5CCN(c6ccc(NC7CCC(=O)NC7=O)cc6F)CC5)CC4)cc3)nc2n1-c1ccc2c(n1)[C@@](O)(CC)CC2 (stereo partly drawn) [Compound 157]

IC50 (NCI-H1048 cells) [nM] | DC50 (HiBiT tagged Wee1) [nM] | Dmax (HiBiT tagged Wee1) [%] | SMILES
≤ 25 | < 100 | > 75 | C=CCn1c(=O)c2cnc(Nc3ccc(N4CCC(CN5CCN(c6ccc(NC7CCC(=O)NC7=O)cc6F)CC5)CC4)cc3)nc2n1-c1ccc2c(n1)[C@@](C)(O)CC2 (single isomer, unassigned) [Compound 121]
≤ 25 | < 100 | > 75 | C=CCn1c(=O)c2cnc(Nc3ccc(N4CCC(N5CC6(CN(c7ccc(NC8CCC(=O)NC8=O)cc7F)C6)C5)CC4)cc3)nc2n1-c1cccc(C(C)(C)O)n1 (stereo not drawn) [Compound 123]
≤ 25 | < 100 | > 75 | C=CCn1c(=O)c2cnc(Nc3ccc(N4CCN(C5CCN(c6ncc(NC7CCC(=O)NC7=O)cc6F)CC5)CC4)cc3)nc2n1-c1ccc2c(n1)[C@@](O)(CC)CC2 (stereo partly drawn) [Compound 182]
≤ 25 | < 100 | 50 to 75 | C=CCn1c(=O)c2cnc(Nc3ccc(N4CCN(CC5CCN(c6ccc7c(N8CCC(=O)NC8=O)nn(C)c7c6)CC5)[C@H](C)C4)cc3)nc2n1-c1ccc2c(n1)[C@@](O)(CC)CC2 [Compound 174]
> 100 | > 1000 | < 50 | Cc1cc(Nc2ncc3c(n2)N(C)CN(c2c(Cl)cccc2Cl)C3=O)ccc1C1CCN(CC2CCN(c3ccc4c(c3)C(=O)N(C3CCC(=O)NC3=O)C4=O)CC2)CC1 (stereo not drawn) [Compound 16]
> 100 | > 1000 | < 50 | C=CCn1c(=O)c2cnc(Nc3ccc4c(c3)CN(CC3CN(c5ccc6c(c5)C(=O)N(C5CCC(=O)NC5=O)C6=O)C3)CC4)nc2n1-c1cccc(C(C)(C)O)n1 (stereo not drawn) [Compound 6]
≤ 25 | < 100 | > 75 | C=CCn1c(=O)c2cnc(Nc3ccc(N4CCN(CC5CCN(c6cc7c(cc6F)c(N6CCC(=O)NC6=O)nn7C)CC5)CC4)nc3)nc2n1-c1ccc2c(n1)[C@@](O)(CC)CC2 [Compound 194]
≤ 25 | < 100 | > 75 | C=CCn1c(=O)c2cnc(Nc3ccc(N4CCC(CN(C)C5CCN(c6ccc(NC7CCC(=O)NC7=O)cc6F)CC5)CC4)cc3)nc2n1-c1cccc(C(C)(C)O)n1 (stereo not drawn) [Compound 91]
25 to 100 | < 100 | 50 to 75 | O=C1CCC(N2C(=O)c3ccc(N4CCC(CN5CCN(c6ccc(Nc7ncc8c(=O)n(-c9c(Cl)cccc9Cl)c9nccn9c8n7)cc6)CC5)CC4)cc3C2=O)C(=O)N1 (stereo not drawn) [Compound 3]
≤ 25 | < 100 | > 75 | C=CCn1c(=O)c2cnc(Nc3ccc(N4CCN(CC5CCN(c6ccc7c(N8CCC(=O)NC8=O)nn(C)c7c6F)CC5)CC4)cc3)nc2n1-c1ccc2c(n1)[C@](C)(O)CC2 [Compound 200]
25 to 100 | < 100 | 50 to 75 | O=C1CCC(N2C(=O)c3cccc(NCCCN4CCN(c5ccc(Nc6ncc7c(=O)n(-c8c(Cl)cccc8Cl)c8nccn8c7n6)cc5)CC4)c3C2=O)C(=O)N1 (stereo not drawn) [Compound 2]
≤ 25 | < 100 | > 75 | C=CCn1c(=O)c2cnc(Nc3ccc(N4CCC(CN5CCC(c6ccc(NC7CCC(=O)NC7=O)cc6C(F)(F)F)CC5)CC4)cc3)nc2n1-c1cccc(C(C)(C)O)n1 (stereo not drawn) [Compound 80]
≤ 25 | < 100 | > 75 | C=CCn1c(=O)c2cnc(Nc3ccc(N4C[C@@H](C)N(CC5CCN(c6ccc(NC7CCC(=O)NC7=O)cc6F)CC5)[C@@H](C)C4)cc3)nc2n1-c1ccc2c(n1)[C@@](O)(CC)CC2 (stereo partly drawn) [Compound 169]
≤ 25 | < 100 |  | C=CCn1c(=O)c2cnc(Nc3ccc(N4CCC(N5CC6(CN(c7ccc(NC8CCC(=O)NC8=O)cc7F)C6)C5)CC4)cc3)nc2n1-c1ccc2c(n1)[C@@](O)(CC)CC2 (stereo partly drawn) [Compound 156]
≤ 25 |  | 50 to 75 | C=CCn1c(=O)c2cnc(Nc3ccc(C4CCN(CC5CCN(c6cccc7c6n(C)c(=O)n7C6CCC(=O)NC6=O)CC5)CC4)c(C)c3)nc2n1-c1cccc(C(C)(C)O)n1 (stereo not drawn) [Compound 97]
≤ 25 | 100 to 1000 | 50 to 75 | C=CCn1c(=O)c2cnc(Nc3ccc(N4CCN(CCCCc5ccc6c(c5)n(C)c(=O)n6C5CCC(=O)NC5=O)CC4)cc3)nc2n1-c1cccc(C(C)(C)O)n1 (stereo not drawn) [Compound 47]
≤ 25 | < 100 | 50 to 75 | C=CCn1c(=O)c2cnc(Nc3ccc(C4CCN(CC5CCN(c6cccc7c6n(C)c(=O)n7C6CCC(=O)NC6=O)CC5)CC4)cc3)nc2n1-c1ccc2c(n1)[C@@](O)(CC)CC2 (stereo partly drawn) [Compound 108]
